In ChEMBL document CHEMBL2074489, “Human organic anion transporter 3 (hOAT3) can operate as an exchanger and mediate secretory urate flux” (Cell Physiol Biochem, 2003):

Tests used:
[1] = biological target: T1, Organic anion transporter 3 (Homo sapiens, UniProt Q8TCC7); experiment: TP_TRANSPORTER: trans-stimulation in Xenopus laevis oocytes; assay type: functional, cell-based; settings: oocyte
T1 sequence (Q8TCC7 whole entry): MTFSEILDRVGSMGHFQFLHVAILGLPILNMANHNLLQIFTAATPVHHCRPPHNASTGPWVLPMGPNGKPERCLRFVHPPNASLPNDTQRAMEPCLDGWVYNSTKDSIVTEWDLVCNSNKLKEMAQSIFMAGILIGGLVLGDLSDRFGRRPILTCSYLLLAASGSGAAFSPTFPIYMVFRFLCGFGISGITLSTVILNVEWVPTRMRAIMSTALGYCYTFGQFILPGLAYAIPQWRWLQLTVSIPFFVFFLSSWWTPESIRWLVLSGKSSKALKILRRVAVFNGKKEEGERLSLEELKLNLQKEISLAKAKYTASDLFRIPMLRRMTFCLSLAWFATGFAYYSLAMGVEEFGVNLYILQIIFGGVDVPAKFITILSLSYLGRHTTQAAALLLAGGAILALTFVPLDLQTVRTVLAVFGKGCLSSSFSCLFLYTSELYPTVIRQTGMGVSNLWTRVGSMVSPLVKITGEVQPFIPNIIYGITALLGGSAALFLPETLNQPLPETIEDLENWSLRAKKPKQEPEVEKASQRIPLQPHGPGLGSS

[2] = biological target: T1, Organic anion transporter 3; experiment: TP_TRANSPORTER: inhibition of Estrone sulfate in Xenopus laevis oocytes; assay type: functional, cell-based, Oocyte

| SMILES | Activity [1] | Ki [2] [µM] |
| --- | --- | --- |
| O=C(O)CCC(=O)C(=O)O [ALPHA-KETOGLUTARIC ACID] | substrate [] |  |
| Nc1ccc(C(=O)NCC(=O)O)cc1 [AMINOHIPPURIC ACID] | substrate [] |  |
| CN/C(=N/CCSCc1nc[nH]c1C)NC#N [CIMETIDINE] | substrate [] |  |
| O=C(O)CCCC(=O)O [GLUTARATE] | substrate [] |  |
| O=c1[nH]c(=O)c2[nH]c(=O)[nH]c2[nH]1 [URIC ACID] | substrate [] | 275 |
